Measurements reported in patent US4704403A, “3-(2,2,2-trisubstituted hydrazinium) propionates” (priority 1983, dated 1987).

Tests used:
[1] = test system: hypertensive male rats of the Akamoto-Aoki line; assay: Variation of arterial pressure upon intraperitoneal administration to hypertensive rats; type: in vivo
Method: The study of hypotensive properties of the compounds of this invention has been carried out of hypertensive male rats of the Akamoto-Aoki line aged 25-30 weeks. The animals were divided into groups (7-10 rats in each) and for 2 weeks before the beginning of the experiment they were subjected to an every-day training for adaptation to the unit for measurements of the arterial pressure. The systolic and diastolic arterial pressure were measured indirectly on the tail artery. The level of the arterial pressure prior to administration of the test compounds was measured by way of a triple determination thereof--2 days, one day and right before the administration of the preparation. The compounds were administered intraperitoneally in the form of a 2.5% aqueous solution or a 2.5% suspension in Twin-80 in the dose of 50 mg/kg. The measurement of the arterial pressure was effected 30 minutes, 1, 2, 3 and 4 hours and in some cases 24 hours after the administration of the preparation. For a number of compounds featuring a high efficiency, also determined was the dose causing reduction of the arterial pressure by 30% as compared with the starting level (ED30). The statistical processing of the data obtained was carried out using the Student certainty criterion.

[2] = test system: spontaneously hypertensive rats of the Akamoto-Aoki line; assay: Hypotensive activity on spontaneously hypertensive rats at a single peroral administration; type: in vivo; settings: for Systolic arterial pressure: ethyl 40 mg/kg (initial 198), allyl 50 mg/kg (initial 184), benzyl 40 mg/kg (initial 196); for Systolic arterial pressure, percent in parentheses (decrease from initial): ethyl 40, allyl 50, benzyl 40 mg/kg
[3] = test system: spontaneously hypertensive rats of the Akamoto-Aoki line; assay: Systolic arterial pressure of spontaneously hypertensive rats upon a repeated peroral administration; type: in vivo
Method: Thus, after a four-days course of administration (once a day, per os) of the compounds according to the present invention an essential reduction of the arterial pressure in the test animals is observed which is not returned to the initial level even an expiration of four days after discontinuation of the preparation administration, whereas the hypotensive effect of nifedipine is manifested for only 8 hours.

[4] = test system: hemodynamic effects of neoepinephrine; assay: Effect on vegetative responses: neoepinephrine; type: in vivo, cats; settings: neoepinephrine 0.2 μg/kg
Method: (§1) The effect of the compounds according to the present invention on the arterial pressure and vegetative responses has been studied in acute experiments on cats with a mass of 2.8-4.0 kg narcotized by α-glucochloralose (90 mg/kg) and urethane (100 mg/kg intraperitoneally).
(§2) The arterial pressure in the common carotid artery, breathing and electrocardiogram of the second standard lead were recorded.
(§3) The effect of the compounds according to the present invention on hemodynamic effects of acetylcholine (0.1 μg/kg) neoepinephrine (0.2 μg/kg), noradrenaline (1 μg/kg) and histamine (1.5 μg/kg) was also studied. In some experiments instead of neoepinephrine and noradrenaline adrenaline was used (1 μg/kg). The peripheral part of the vagus nerve was irritated by supromaximum square pulses of the frequency of 30 Hz and duration of 0.1 ms.

Angiotension = assay: Effect on vegetative responses: angiotensin; type: in vivo, cats; settings: dose 5 (unit not given)
[5] = Acute toxicity upon intraperitoneal administration to white mice; type: in vivo; settings: mouse, in vivo, ip, 14 days observation, average values with confidential limits at P=0.05
Method: (§4) The acute toxicity of the compounds according to the present invention was studied on white mice of both sexes with a mass of 20-25 g. A saturated aqueous solution of the compounds or a suspension in Tween-80 was administered to the animals intraperitoneally. The observation over the animals was carried out for 14 days. The results obtained were processed following the Litchfield-Wilkoxon method. As it follows from the data shown in Table 5 hereinbelow, the studied compounds have a very low acute toxicity, thus providing a large spectrum of the therapeutic effect.

white mice = assay: as above; type: in vivo; settings: i.p.
Method: as §4

[6] = test system: arrhythmia caused by introduction of calcium chloride; assay: Antiarrhythmic activity on the model of arrhythmia caused by calcium chloride (antagonism towards calcium); type: in vivo, mice; settings: for Dose of calcium chloride causing arrhythmia: control 85.0; for Dose of calcium chloride causing heart arrest: control 100.0
Method: In experiments on white mice with a mass of 18-25 g narcotized with urethane an electrocardiogram was recorded in the second standard lead. A 2% solution of calcium chloride was introduced into the tail vein at a constant rate (0.01 ml for 2 seconds). The dose of calcium chloride causing arrhythmia and the dose causing heart arrest were determined. In experimental groups the test compounds were administered 20-40 minutes prior to the beginning of the experiment intraperitoneally.

arterial pressure = assay: Effect on the arterial pressure in narcotized cats; type: in vivo
Method: as §1, §2, §3

[7] = test system: hemodynamic effects of acetylcholine; assay: Effect on vegetative responses: acetylcholine; type: in vivo, cats; settings: dose "-10" [sic] (unit not given); acetylcholine 0.1 μg/kg
Method: as §1, §2, §3

[8] = test system: hemodynamic effects of noradrenaline; assay: Effect on vegetative responses: noradrenaline; type: in vivo, cats; settings: noradrenaline 1 μg/kg
Method: as §1, §2, §3

[9] = 30 minutes, 50 mg/kg i.p. (nifedipine 1 mg/kg i.p.)
[10] = 1 hour, 50 mg/kg i.p. (nifedipine 1 mg/kg i.p.)
[11] = 2 hours, 50 mg/kg i.p. (nifedipine 1 mg/kg i.p.)
[12] = 4 hours, 50 mg/kg i.p. (nifedipine 1 mg/kg i.p.)
[13] = after four-days p.o. course, benzyl 40 mg/kg, allyl 50 mg/kg, nifedipine dose not given
[14] = p.o. once a day, benzyl 40 mg/kg, allyl 50 mg/kg, nifedipine dose not given
[15] = p.o., benzyl 40 mg/kg, allyl 50 mg/kg, nifedipine dose not given
[16] = dose "-10" [sic] (unit not given)

C=CC[N+](C)(C)NCCC(=O)[O-] [3-(2,2-dimethyl-2-allylhydrazinium)propionate semihydrate]
Average variation of the diastolic arterial pressure [1, 9]: -10 % of the initial | Average variation of the systolic arterial pressure [1, 9]: -12 % of the initial | Average variation of the diastolic arterial pressure [1, 10]: -23 % of the initial | Average variation of the systolic arterial pressure [1, 10]: -12 % of the initial | Average variation of the diastolic arterial pressure [1, 11]: -29 % of the initial | Average variation of the systolic arterial pressure [1, 11]: -18 % of the initial | Average variation of the diastolic arterial pressure [1, 12]: -31 % of the initial | Average variation of the systolic arterial pressure [1, 12]: -14 % of the initial | Average variation of the diastolic arterial pressure ([1]; 24 hours, 50 mg/kg i.p.): -7 % of the initial | Average variation of the systolic arterial pressure ([1]; 24 hours, 50 mg/kg i.p.): -3 % of the initial | Systolic arterial pressure ([2]; 3 hours after single p.o.): 153 mm Hg | Systolic arterial pressure, percent in parentheses (decrease from initial) ([2]; 3 hours after single p.o.): 17% | Systolic arterial pressure ([2]; 5 hours after single p.o.): 155 mm Hg | Systolic arterial pressure, percent in parentheses (decrease from initial) ([2]; 5 hours after single p.o.): 16% | Systolic arterial pressure ([2]; 24 hours after single p.o.): 170 mm Hg | Systolic arterial pressure, percent in parentheses (decrease from initial) ([2]; 24 hours after single p.o.): 8% | Systolic arterial pressure, 5th day [3, 13]: 126 mm Hg | Systolic arterial pressure, 8th day [3, 13]: 168 mm Hg | Systolic arterial pressure, 10th day [3, 13]: 175 mm Hg | Systolic arterial pressure, 2nd day after administration ([3]; p.o. once a day, allyl 50 mg/kg, nifedipine dose not given): 132.8 mm Hg | Systolic arterial pressure, 1st day after administration ([3]; p.o. once a day, benzyl 40 mg/kg (initial 195.8), allyl 50 mg/kg (initial 176.6), nifedipine dose not given (initial 184.0)): 150.6 mm Hg | Systolic arterial pressure, 2nd day before administration [3, 14]: 166.8 mm Hg | Systolic arterial pressure, 3rd day after administration [3, 14]: 118 mm Hg | Systolic arterial pressure, 4th day after administration [3, 14]: 118.6 mm Hg | Systolic arterial pressure, 4th day before administration [3, 14]: 129 mm Hg | Percent in parentheses (change of systolic pressure from initial), 2nd day after administration ([3]; p.o., allyl 50 mg/kg, nifedipine dose not given): 25% | Percent in parentheses (change of systolic pressure from initial), 1st day after administration [3, 15]: 15% | Percent in parentheses (change of systolic pressure from initial), 2nd day before administration [3, 15]: 6% | Percent in parentheses (change of systolic pressure from initial), 3rd day after administration [3, 15]: 33% | Percent in parentheses (change of systolic pressure from initial), 4th day after administration [3, 15]: 33% | Percent in parentheses (change of systolic pressure from initial), 4th day before administration [3, 15]: 27% | Percent in parentheses (change of systolic pressure from initial), 5th day [3, 15]: 29% | Percent in parentheses (change of systolic pressure from initial), 8th day [3, 15]: 5% | Hemodynamic effect, Neoepinephrine ([4]; dose 5 (unit not given)): -20% | Hemodynamic effect, Angiotension (Angiotension): -70% | LD50 at 336 h [5]: 10600 mg/kg | Relative toxicity with respect to quinidine (LD50 / LD50 of quinidine) (white mice): 67.9 | Dose of calcium chloride causing arrhythmia ([6]; compound dose 5 mg/kg i.p.): 99.6 | Dose of calcium chloride causing heart arrest ([6]; compound dose 5 mg/kg i.p.): 118.0 | Dose of calcium chloride causing arrhythmia ([6]; compound dose 25 mg/kg i.p.): 95.2 | Dose of calcium chloride causing heart arrest ([6]; compound dose 25 mg/kg i.p.): 103.0

CCCCCCCCCCCCCCCC[N+](C)(C)NCCC(=O)[O-] [3-(2,2-dimethyl-2-hexadecylhydrazinium)propionate]
Variation of arterial pressure (arterial pressure; dose 3 (unit not given)): -5% | Variation of arterial pressure (arterial pressure; [16]): -3% | Variation of the effect of acetylcholine [7]: -10% | Hemodynamic effect, Noradrenaline ([8]; dose 3 (unit not given)): -15% | Hemodynamic effect, Noradrenaline [8, 16]: -80% | Hemodynamic effect, Neoepinephrine ([4]; dose 3 (unit not given)): -10% | Hemodynamic effect, Neoepinephrine [4, 16]: -30% | LD50 at 336 h [5]: 1450 mg/kg | Relative toxicity with respect to quinidine (LD50 / LD50 of quinidine) (white mice): 9.3 | Dose of calcium chloride causing arrhythmia ([6]; compound dose 5 mg/kg i.p.): 130.5 | Dose of calcium chloride causing heart arrest ([6]; compound dose 5 mg/kg i.p.): 140.6 | Dose of calcium chloride causing arrhythmia ([6]; compound dose 25 mg/kg i.p.): 102.7 | Dose of calcium chloride causing heart arrest ([6]; compound dose 25 mg/kg i.p.): 124.5
